Results as given in the NIST ThermoML archive (doi:10.1021/acs.jced.8b00771).
Numbers after ± are expanded uncertainties.

Experiment: molar heat capacity at constant pressure
Details: 100 kPa, Extra sensitive DSC

molar heat capacity at constant pressure (293.15 K, Crystal): 216.99 ± 12 J/K/mol
molar heat capacity at constant pressure (303.15 K, Crystal): 221.39 ± 12 J/K/mol
molar heat capacity at constant pressure (313.15 K, Crystal): 224.33 ± 12 J/K/mol
molar heat capacity at constant pressure (363.15 K, Liquid): 284.44 ± 13 J/K/mol
molar heat capacity at constant pressure (373.15 K, Liquid): 291.77 ± 13 J/K/mol
Compound: CCn1cc[n+](C)c1.[Cl-] [1-ethyl-3-methylimidazolium chloride]
